From US4791113A, “Mitomycin derivatives as antileukemia agents” (Kyowa Hakko Kogyo Kabushiki Kaisha, priority 1986, dated 1988)
In brackets after ≈: the same amount, converted by molar mass.

What was measured:
Sarcoma 180 solid tumour = type: in vivo, ddy mouse; conditions: C.I.=(LD50)/(ED50), ED50 = dose at T/C=0.5, i.v. (tail vein), 7 days
Description: (§1) In this table, C.I. denotes chemotherapeutic index, calculated as C.I.=(LD50)/(ED50), wherein LD50 denotes the value of acute toxicity, and ED50 denotes the dose of a sample which is capable of reducing the volume of Sarcoma 180 solid tumour to 50% of the corresponding volume of the solid tumour of untreated group.
(§2) The test compound was abdominally administered once to ddy mice, each group consisting of 5 animals.
(§3) 5×10^6 cells of Sarcoma 180 solid tumour were abdominally implanted into a ddy mouse. 7 days after this, the cells were collected from the ascites fluid. The cells were washed once with physiological saline under sterile conditions and suspended in physiological saline to obtain a cell suspension containing 5×10^7 cells/ml of which 0.1 ml was implanted into a ddy male mouse (body weight 20±2 g) under the skin of the right armpit. The test compound was dissolved in physiological saline or the same solution containing Tween 80. 24 hours after implantation of the tumour cells, 0.1-0.2 ml of the solution containing the test compound was administered to the tail vein of each animal in the test group consisting of 5 animals. 7 days after the implantation, the major axis (a) and minor axis (b) of the tumour were measured to calculate the volume of the tumour as "a"×"b^2 "/2. The antitumour effect was indicated by T/C which is the ratio of the tumour volume in the test animals to the corresponding volume of the control (untreated) animals.
(§4) T/C ratios and the dose were respectively plotted on the ordinate using an arithmetic scale and on the abscissa using a logarithmic scale, the relationship between the dosage and the T/C ratio being converted to a straight line by the least squares method. From the straight tropic line thus-obtained, the dosage corresponding to a T/C=0.5 viz. ED50 was determined.

in vivo [1] = assay: in vivo; set-up: species or system mice (ddy strain); conditions: mouse, ip, ratio of dose reducing peripheral leucocytes to 4000 (per mm^3; i.p., 4 days) to ED50 (Sarcoma 180), read-out: (WBC4000)/(ED50)
Description: as §1, §3, §4
Sarcoma 180 solid tumour cells (5×10^6) were subcutaneously implanted under the skin of the right armpit of each mouse (body weight 20±2 g) of a group consisting of 5 male mice (ddy strain). 24 hours after this, a test compound was intraperitoneally administered to each animal. 4 days later, blood (0.02 ml) was collected from the suborbital plexus vein of each tumour-carrying animal. The collected sample of blood was dispersed in 9.98 ml of Cellkit Seven solution. One drop of saponin solution was added to the sample to dissolve erythrocytes and then a microcell counter was used to measure the number of leucocytes. On graph paper, the number of leucocytes was plotted on the ordinate using an arithmetic scale, and the dosage was plotted on the abscissa using a logarithmic scale to show the relationship of the dosage to the number of peripheral leucocytes, from which the value of WBC4000 viz. a value capable of giving 4000 peripheral leucocytes per mm^3 (about half of the corresponding value in normal mice) was obtained.

in vivo [2] = conditions: mouse, ip, single abdominal administration, ddy mice, 14 days, Behrens-Korber's method
Description: as §1, §2

Hela S3 cultured cells = assay: Effects upon Hela S3 cultured cells; type: cell-based; conditions: Homo sapiens, HeLa S3, 72 h
Experimental: Table 3 indicates the effects of typical Compounds (I) against Hela S3 culture cells. In this table, IC50 denotes the concentration of the test compound capable of reducing the number of cells to 50% the number of untreated cells.
Cultured cells of Hela S3 were added to a MEM medium containing 10% (V/V) of bovine fetal serum and […] of glutamine to obtain a cell suspension of 3×10^4 cells/ml. The cell suspension was poured into each well (1 ml/well) of a 24 well-multiplate for culturing at 37° C. in an incubator containing carbon dioxide (5%) and air (95%). After 24 hours, samples were dissolved or suspended in PBS, ethanol or dimethylsulfoxide and added to the medium at different concentrations, followed by culturing at 37° C. for 72 hours in the same incubator. An aspirator was used to collect the medium from each well. The surface of each medium was washed by adding PBS (1 ml) gently, and then PBS was sucked out. PBS containing trypsin (0.05%) and EDTA (0.02%) was poured into each well. After pipetting, the number of cells in each suspension was counted by the use of a microcell counter (commercial product of Toa Iyo Denshi K.K., Japan). By reference to a curve showing the concentration vs. the number of cells, the IC50 (concentration of sample capable of reducing the number of cells to 50% of the number of control untreated cells) was measured.

CO[C@@]12[C@H](COC(N)=O)c3c(O)c(N=NC4=NCCN4)c(C)c(O)c3N1C[C@@H]1N[C@@H]12 [Example 23, [1aS-(1aα,8β, 8aα,8bα)]-8-{[(aminocarbonyl)oxy]methyl}-4,7-dihydroxy-1,1a,2,8,8a,8b-hexahydro-6[(2"- imidazolinyl)azo]-8a-methoxy-5-methyl-azirino[2',3':3,4]pyrrolo[1,2-a]indol]
C.I. (chemotherapeutic index) (Sarcoma 180 solid tumour): > 0.6
selectivity ratio (in vivo [1]): 0.5
LD50 at 336 h (in vivo [2]): > 100 mg/kg
IC50 (Hela S3 cultured cells): 0.162 µg/mL (≈ 0.388 µM)
